Source: patent publication US10155764B2, “Therapeutic compounds and uses thereof” (GENENTECH, INC., priority 2014, dated 2018)

Target: PCAF719-832 bromodomain (Homo sapiens (Human), UniProt Q92831)
Experiment: PCAF AlphaLisa binding assay
Settings: PCAF bromodomain 225 nM, biotinylated small molecule ligand 6 nM
Procedure: PCAF bromodomain binding and inhibition of the compounds disclosed herein was assessed by monitoring the engagement of biotinylated small molecule ligand (known to bind to the PCAF bromodomain) with the target using the AlphaLisa technology (Perkin-Elmer).

Sequence of PCAF719-832 bromodomain (Q92831 719-832): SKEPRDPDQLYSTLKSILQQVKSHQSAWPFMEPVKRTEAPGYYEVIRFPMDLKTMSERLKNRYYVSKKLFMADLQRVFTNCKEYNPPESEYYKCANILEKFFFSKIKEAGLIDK

Structure (SMILES) | IC50 [nM]
CN(C)[C@@H]1CCCC[C@@H]1Nc1nn(C)c(=O)c2cccnc12 (single isomer, unassigned) [Example 15B] | 1500
COC(=O)c1ccc([C@@H]([C@H](C)Nc2nn(C)c(=O)c3cccnc23)N(C)C)cc1 [Example 68, Methyl 4-((1S,2S)-1-(dimethylamino)-2-((6-methyl-5-oxo-5,6-dihydropyrido[2,3-d]pyridazin-8-yl)amino)propyl)benzoate] | 160
Cc1cccc2c(=O)n(C)nc(N[C@H](C)[C@@H](c3ccccc3)N(C)C)c12 (single isomer, unassigned) [Example 70B] | 1800
C[C@H](Nc1nn(C)c(=O)c2cccnc12)[C@H](c1ccc(C(=O)N2CCOCC2)cc1)N(C)C [Example 82, 8-(((1S,2S)-1-(dimethylamino)-1-(4-(morpholine-4-carbonyl)phenyl)propan-2-yl)amino)-6-methylpyrido[2,3-d]pyridazin-5(6H)-one] | 59
CC(C)OC(=O)c1ccc([C@@H]([C@H](C)Nc2nn(C)c(=O)c3cccnc23)N(C)C)cc1 [Example 86, Isopropyl 4-((1S,2S)-1-(dimethylamino)-2-((6-methyl-5-oxo-5,6-dihydropyrido[2,3-d]pyridazin-8-yl)amino)propyl)benzoate] | 30
CC[C@H](Nc1nn(C)c(=O)c2cccnc12)[C@H](c1ccccc1)N(C)C (single isomer, unassigned) [Example 58] | 40
CN(C)C(CNc1nn(C)c(=O)c2[nH]ccc12)c1ccccc1 (racemic) [Example 10, 4-((2-(dimethylamino)-2-phenylethyl)amino)-6-methyl-1H-pyrrolo[2,3-d]pyridazin-7(6H)-one] | 240
CN(C)[C@@H]1c2ccccc2C[C@@H]1Nc1nn(C)c(=O)c2ccccc12 [Example 47A, 4-(((1R,2S)-1-(dimethylamino)-2,3-dihydro-1H-inden-2-yl)amino)-2-methylphthalazin-1(2H)-one] | 2700
C[C@H](Nc1nn(C)c(=O)c2ccccc12)[C@H](c1ccccc1)N(C)C (single isomer, unassigned) [Example 73A] | 23
CN1CCCC1CNc1nn(C)c(=O)c2ccccc12 (racemic) [Example 30, 2-methyl-4-(((1-methylpyrrolidin-2-yl)methyl)amino)phthalazin-1(2H)-one] | 1700
C[C@H](Nc1nn(C)c(=O)c2ccccc12)[C@H](c1cccnc1)N(C)C (single isomer, unassigned) [Example 61] | 86
CC(Nc1nn(C)c(=O)c2cccnc12)C(c1cn(C)nn1)N(C)C (single isomer, unassigned) [Example 75, 8-((1-(dimethylamino)-1-(1-methyl-1H-1,2,3-triazol-4-yl)propan-2-yl)amino)-6-methylpyrido[2,3-d]pyridazin-5(6H)-one] | 130
C[C@@H](CNc1nn(C)c(=O)c2cccnc12)N(C)C (single isomer, unassigned) [Example 7A] | 860
CCn1nc(N[C@@H](C)CN(C)C)c2ccccc2c1=O (single isomer, unassigned) [Example 17B] | 280
CC(C)NCCNc1nn(C)c(=O)c2ccccc12 [Example 40, 4-((2-(isopropylamino)ethyl)amino)-2-methylphthalazin-1(2H)-one] | 9400
CN(C)[C@H]1c2ccccc2C[C@H]1Nc1nn(C)c(=O)c2cccnc12 [Example 46B, 8-(((1S,2R)-1-(dimethylamino)-2,3-dihydro-1H-inden-2-yl)amino)-6-methylpyrido[2,3-d]pyridazin-5(6H)-one] | > 5000
CC(CN(C)C)Nc1nn(C)c(=O)c2ccncc12 (racemic) [Example 12, 4-((1-(dimethylamino)propan-2-yl)amino)-2-methylpyrido[3,4-d]pyridazin-1(2H)-one] | 220
CN(C)CCNc1nn(C)c(=O)c2ccccc12 [Example 29, 4-((2-(dimethylamino)ethyl)amino)-2-methylphthalazin-1(2H)-one] | 150

Structure (SMILES) | IC50 [nM]
C[C@H](Nc1nn(C)c(=O)c2ccccc12)[C@H](c1ccc(O)cc1)N(C)C [Example 76, 4-(((1S,2S)-1-(dimethylamino)-1-(4-hydroxyphenyl)propan-2-yl)amino)-2-methylphthalazin-1(2H)-one] | 42
CN(C)C(CNc1nn(C)c(=O)c2c1CCC2)c1ccccc1 (racemic) [Example 37, 4-((2-(dimethylamino)-2-phenylethyl)amino)-2-methyl-2,5,6,7-tetrahydro-1H-cyclopenta[d]pyridazin-1-one] | 130
CN(C)[C@@H]1c2ccccc2C[C@@H]1Nc1nn(C)c(=O)c2cccnc12 [Example 46A, 8-(((1R,2S)-1-(dimethylamino)-2,3-dihydro-1H-inden-2-yl)amino)-6-methylpyrido[2,3-d]pyridazin-5(6H)-one] | 4800
CC[C@@H](CNc1nn(C)c(=O)c2ccccc12)N(C)C (single isomer, unassigned) [Example 39A] | 550
CN(C)CCNc1nn(C)c(=O)c2cccnc12 [Example 2, 8-((2-(dimethylamino)ethyl)amino)-6-methylpyrido[2,3-d]pyridazin-5(6H)-one] | 140
Cn1nc(NC2CNC2)c2ncccc2c1=O [Example 19, 8-(azetidin-3-ylamino)-6-methylpyrido[2,3-d]pyridazin-5(6H)-one] | 3400
COc1ccc2c(=O)n(C)nc(NCCN(C)C)c2c1 [Example 3, 4-((2-(dimethylamino)ethyl)amino)-6-methoxy-2-methylphthalazin-1(2H)-one] | 410
CN(C)CCSc1nn(C)c(=O)c2ccccc12 [Example 9, 4-((2-(dimethylamino)ethyl)thio)-2-methylphthalazin-1(2H)-one] | 890
C[C@@H](CN(C)C)Nc1nn(C)c(=O)c2cccnc12 (single isomer, unassigned) [Example 8A] | 42
CN1CCCC(Nc2nn(C)c(=O)c3ccccc23)C1 (racemic) [Example 43, 2-methyl-4-((1-methylpiperidin-3-yl)amino)phthalazin-1(2H)-one] | 790
C[C@H](Nc1nn(C)c(=O)c2cccnc12)[C@H](c1ccc(S(=O)(=O)c2ccccc2)cc1)N(C)C (single isomer, unassigned) [Example 74A] | 20
CCC(CNc1nn(C)c(=O)c2ccccc12)N(C)C (racemic) [Example 39, 4-((2-(dimethylamino)butyl)amino)-2-methylphthalazin-1(2H)-one] | 180
Cc1cccc2c(N[C@H](C)[C@@H](c3ccccc3)N(C)C)nn(C)c(=O)c12 (single isomer, unassigned) [Example 69B] | 170
C[C@H](Nc1nn(C)c(=O)c2[nH]ccc12)[C@H](c1ccccc1)N(C)C (single isomer, unassigned) [Example 71A] | > 5000
C[C@H](Nc1nn(C)c(=O)c2ccccc12)[C@H](c1ccc(OCC2CC2)cc1)N(C)C (single isomer, unassigned) [Example 78] | 44
Cn1nc(NCCN2CCCCC2)c2ccccc2c1=O [Example 41, 2-methyl-4-((2-(piperidin-1-yl)ethyl)amino)phthalazin-1(2H)-one] | 2200
CN(C)CCNc1nn(C)c(=O)c2cccc(F)c12 [Example 5, 4-((2-(dimethylamino)ethyl)amino)-5-fluoro-2-methylphthalazin-1(2H)-one] | 130
